Legend:
[1] = biological target: Survival motor neuron protein (Homo sapiens) (UniProt Q16637); assay: Modulation of human SMN2 level in NSC34 cells assessed as fold change by ELISA; format: cell-based
[2] = biological target: T1, von Hippel-Lindau disease tumor suppressor (Homo sapiens, UniProt P40337); assay: Binding affinity to VHL E3 ligase (unknown origin) by fluorescence polarization (FP) assay
[3] = biological target: T1, von Hippel-Lindau disease tumor suppressor; assay: Binding affinity to VHL E3 ligase (unknown origin) assessed as dissociation constant by isothermal titration calorimetry assay

Sequence of Survival motor neuron protein (Homo sapiens) (Q16637 whole entry): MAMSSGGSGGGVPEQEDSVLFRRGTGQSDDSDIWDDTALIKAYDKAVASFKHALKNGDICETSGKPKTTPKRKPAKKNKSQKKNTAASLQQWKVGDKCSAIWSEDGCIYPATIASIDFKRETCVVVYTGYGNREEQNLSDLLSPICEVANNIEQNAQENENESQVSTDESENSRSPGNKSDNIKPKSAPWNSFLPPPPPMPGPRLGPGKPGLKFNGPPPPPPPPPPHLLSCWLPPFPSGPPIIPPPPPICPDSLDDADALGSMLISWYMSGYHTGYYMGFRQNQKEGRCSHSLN
T1 sequence (P40337 whole entry): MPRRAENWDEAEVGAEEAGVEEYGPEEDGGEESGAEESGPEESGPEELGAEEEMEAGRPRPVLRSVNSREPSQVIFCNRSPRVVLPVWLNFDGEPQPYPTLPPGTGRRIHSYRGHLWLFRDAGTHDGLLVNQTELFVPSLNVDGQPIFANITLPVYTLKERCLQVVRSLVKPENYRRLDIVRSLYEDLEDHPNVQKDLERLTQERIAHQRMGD

Structure (SMILES) | fold change (FC) ([1]; NSC-34, filed as modulator) | EC1.5 ([1]; NSC-34, filed as modulator) | further results
CC1(C)CC(Oc2ccc(-c3ccc(-n4cccn4)cc3O)nn2)CC(C)(C)N1 | 3.3 | – | –
CCCCC(=O)NCCC(=O)N1CCN(c2ccc3nc(-c4cc(F)c5nc(C)cn5c4)cc(=O)n3c2)CC1 | – | – | EC1.5 ([1]; NSC-34): > 1000 nM
COC(=O)c1ccc(CNC(=O)[C@@H]2C[C@@H](O)CN2C(=O)CC(C)(C)C)cc1 | – | – | IC50 [2]: 53.2 µM; Kd [3]: 45.5 µM
CCc1nc(C)cn2nc(-c3cc(=O)n4cc(N5CCN(CC)CC5)ccc4n3)cc12 | – | 23 nM | –
CN(c1ccc(-c2ccc(-n3cccn3)cc2O)nn1)C1CC(C)(C)NC(C)(C)C1 | 3.1 | – | –
CC1(C)CC(Oc2ccc(-c3ccc(-c4cn[nH]c4)cc3O)nn2)CC(C)(C)N1 | 3.6 | – | –
Cc1cn2nc(-c3cc(=O)n4cc(N5CCNC6(CC6)C5)ccc4n3)cc(C)c2n1 | – | 4 nM | –
CCN1CCN(c2ccc3nc(-c4cc5c(C)nc(C)cn5n4)cc(=O)n3c2)CC1 | – | 30 nM | –
Cc1cn2cc(-c3cc(=O)n4cc(N5CCN(C)CC5)ccc4n3)cc(F)c2n1 | – | 15 nM | –
Cc1cn2nc(-c3cc(=O)n4cc(N5CCN(C)CC5)ccc4n3)cc2c(C)n1 | – | 170 nM | –
CN(c1ccc(-c2ccc(-c3cn[nH]c3)cc2O)nn1)C1CC(C)(C)NC(C)(C)C1 | 3.1 | – | –
Oc1cc(-n2cccn2)ccc1-c1ccc(OC2CCNCC2(F)F)nn1 (centres undefined) | 1.2 | – | –
C=C(CCNC(=O)CCCC)N1CCN(c2ccc3nc(-c4cc(F)c5nc(C)cn5c4)cc(=O)n3c2)CC1 | – | 43 nM | –
